Results as given in US20220333077A1, “Product for Therapy and Methods” (The University of Bristol, priority 2019, published 2022).
Entries after “also recorded” stand apart in the source; their conditions may differ. Residues, ends and D or L forms follow the SMILES beside them. *: point of attachment. Cbz = O=C(OCc1ccccc1)*

Assays:
glutamine synthase = experiment: MG132 effect on glutamine synthase levels in GS (over)expressing erythroblasts, flow cytometry; format: cell-based, human; details: MG132 added at day 15, expression measured at day 19
Source text: To investigate the degree to which exogenous enzyme expression is retained during erythropoiesis, four different enzymes were expressed in CD34+ haematopoietic stem cells (using lentivirus) and subsequently differentiated to reticulocytes: glutamine synthase (FIG. 8), adenosine deaminase (FIG. 9), L-asparaginase (FIG. 10), and uricase (FIG. 11). The exogenous proteins Uricase (a bacterial enzyme), human L-asparaginase (ASP) and human […] (ADA) were tagged with c-Myc to facilitate measurement of expression during differentiation by flow cytometry and western blot. GAPDH is an endogenous enzyme which was also blotted for in some cases. For human glutamine synthetase (GS) an antibody specific for this protein was used to detect expression by flow cytometry. The bar graphs in FIGS. 8-11 show expression of indicated enzymes during differentiation as assessed by flow cytometry across two different cultures. Western blots illustrate expression of the enzymes in in vitro derived reticulocytes. To explore whether ubiquitination enhances GS enzyme retention at the end of the culture, MG132 (a ubiquitin inhibitor) was added at day 15 to the GS (over)expressing erythroblasts. Expression was measured at day 19 by flow cytometry.

[1] = tested on: thymidine phosphorylase (TP); experiment: Effect of degradation inhibitors on TP expression in differentiating cTP cells; format: cell-based, human; details: day 14 cTP cells, 24 hours incubation; 10 μM leupeptin or 5 μM MG132
Source text: The substantial loss of TP enzyme expression during differentiation could mean that TP is being actively degraded during terminal differentiation. To test whether exogenous TP degradation during differentiation is due to ubiquitination or lysosomal degradation, we subjected the day 14 (orthochromatic erythrocytes) cTP cells to an ubiquitination inhibitor MG132, or a lysosomal degradation inhibitor, leupeptin (Tsubuki, S., et al., J Biochem, 1996, 119(3), p. 572-6; Hershko, A. and A. Ciechanover, Annu Rev Biochem, 1982, 51, p. 335-64). TP expression was first measured on day 14 and then 24 hours after incubation with inhibitors or the vehicle control.
As previously described (Griffiths, R. E., et al., Blood, 2012. 119(26), p. 6296-306), CD34+ haemopoietic stem cells (HSC) here isolated from human blood donor mononuclear cells or from thawed cryopreserved cord blood units by magnetic bead separation according to manufacturer's instructions (Miltenyi Biotech Ltd, Bisley UK). CD34+ cells were grown at a density of 2×10^5 cells/ml using a base medium consisting of IMDM (Source BioScience) containing 3% (v/v) AB Serum, 2 mg/ml HSA, 10 μg/ml Insulin, 3U/ml heparin, 500 μg/ml transferrin and 3U/ml Epo. […] Cells where fixed with paraformaldehyde and analysed by flow cytometry.

[2] = tested on: in vitro cultured erythroid cells; format: cell-based; details: 0.5 mM thymidine added early, e.g. Day 0 of differentiation; data not shown
[3] = target: T1, thymidine phosphorylase (TP) (Homo sapiens, UniProt P19971); experiment: Thymidine supplementation of differentiation media, TP enzyme abundance in reticulocytes; format: cell-based
T1 construct: expressed in transfected cells; host or cells: CD34+-derived cultured human erythroid progenitors (cTP) and BEL-A erythroid cells (bTP), lentiviral XLG3 vector
T1 sequence (P19971 11-482): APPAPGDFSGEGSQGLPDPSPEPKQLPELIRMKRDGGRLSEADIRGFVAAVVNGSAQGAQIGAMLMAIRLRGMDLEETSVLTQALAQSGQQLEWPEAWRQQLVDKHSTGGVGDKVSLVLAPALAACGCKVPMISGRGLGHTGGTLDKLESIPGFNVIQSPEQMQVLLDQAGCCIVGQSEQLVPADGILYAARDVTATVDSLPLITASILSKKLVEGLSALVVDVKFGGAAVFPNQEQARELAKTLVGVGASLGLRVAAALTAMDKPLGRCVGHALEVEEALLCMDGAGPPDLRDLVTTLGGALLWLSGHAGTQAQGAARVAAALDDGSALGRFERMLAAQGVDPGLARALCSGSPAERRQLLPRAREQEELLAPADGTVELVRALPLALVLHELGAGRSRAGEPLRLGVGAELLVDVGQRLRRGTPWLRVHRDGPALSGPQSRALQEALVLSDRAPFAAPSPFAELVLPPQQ
Source text: After further examination of the molecular human TP structure we observed that the 2 ubiquitination sites that correspond with murine TP, would only be available for ubiquitination in the absence of substrate.
Reticulocytes were identified by gating upon Hoechst-negative population.

SMILES | glutamine synthase levels in reticulocytes (glutamine synthase) | effect on TP degradation during differentiation [1] | cell death and differentiation [2] | TP enzyme abundance compared to standard differentiation media ([3]; bTP reticulocytes, 0.5 mM thymidine daily from day 6 (polychromatic erythroblast stage)) | TP enzyme abundance compared to standard differentiation media ([3]; cTP reticulocytes, 0.5 mM thymidine daily from day 14 (polychromatic erythroblast stage)) | concentration of active TP in the reticulocyte ([3]; thymidine added to the media, un-mutated ubiquitination site)
CC(C)C[C@@H](C=O)NC(=O)[C@H](CC(C)C)NC(=O)[C@H](CC(C)C)NC(=O)OCc1ccccc1 [MG132] (Cbz-Leu-Leu-Leu-aldehyde) | increases glutamine synthase levels in reticulocytes | protected TP from degradation during differentiation; also recorded: inhibition of degradation was observed |  |  |  | 
CC(=O)N[C@@H](CC(C)C)C(=O)N[C@@H](CC(C)C)C(=O)N[C@H](C=O)CCCNC(=N)N [leupeptin] |  | did not impair degradation |  |  |  | 
Cc1cn([C@H]2C[C@H](O)[C@@H](CO)O2)c(=O)[nH]c1=O [thymidine] |  |  | increase in cell death and inhibition of differentiation | doubled | doubled | roughly double
